Consider 27 molecules from patent US8569267B2, “Tetracyclic tetrahydrofuran derivatives containing cyclic amine side chain” (Janssen Pharmaceutica, NV, priority 2005, dated 2013).

Assay [1] addresses T1, NET (norepinephrine transporter) (Rattus norvegicus, UniProt Q63380).
T1 construct: Cortex from rat brain was collected and homogenised; from tissue; host or cells: rat brain cortex
Description: In vitro determination of NET reuptake inhibition ([3H]Nixosetine binding, rat brain cortex). Conditions: rat brain cortex; for IC50: read-out: NET pIC50 (converted). Summed up:
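Rat cortex homogenised in Tris 50 mM, NaCl 120 mM, KCl 5 mM, pH 7.4 was used for competition binding against [3H]nisoxetine. Bound radioligand was collected by filtration on GF/B filters and counted by scintillation. Percentage specific binding and competition curves were derived.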

Assay [2] concerns the target T2, human Dopamine D2L receptor (Homo sapiens, UniProt P14416).
T2 construct: expressed in transfected cells; host or cells: CHO cells
Kind of assay: In vitro binding affinity for human D2L receptor ([3H]Spiperone binding). Conditions: human D2L receptor-transfected CHO cell membranes; for IC50: read-out: D2L pIC50 (converted). Summed up: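 Membranes from CHO cells transfected with the receptor were incubated with [3H]Spiperone (diluted to 2 nmol/L before addition) and compound for 30 min at 37° C. Buffer was Tris-HCl, pH 7.7, with NaCl, CaCl2, MgCl2 and KCl, and non-specific binding was defined with 10^−6 mol/l Butaclamol. Bound radioactivity was collected by filtration, counted by scintillation, and competition curves calculated as percent specific binding.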

The target of assay [3] is T3, human cloned 5-HT2C receptor, expressed in CHO cells (Homo sapiens, UniProt P28335).
T3 construct: expressed in transfected cells; host or cells: CHO cells
T3 sequence (P28335 33-458): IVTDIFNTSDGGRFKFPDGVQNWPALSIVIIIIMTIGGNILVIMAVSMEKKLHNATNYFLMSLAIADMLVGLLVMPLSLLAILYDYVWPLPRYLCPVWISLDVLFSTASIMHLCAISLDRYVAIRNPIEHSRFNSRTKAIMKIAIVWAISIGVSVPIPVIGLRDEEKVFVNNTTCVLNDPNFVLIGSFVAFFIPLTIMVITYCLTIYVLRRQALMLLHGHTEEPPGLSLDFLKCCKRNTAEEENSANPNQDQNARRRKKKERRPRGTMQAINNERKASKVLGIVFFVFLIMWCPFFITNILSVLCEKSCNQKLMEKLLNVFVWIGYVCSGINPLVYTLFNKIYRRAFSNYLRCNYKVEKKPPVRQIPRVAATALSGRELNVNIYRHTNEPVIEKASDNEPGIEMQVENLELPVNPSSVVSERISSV
Kind of assay: In vitro binding affinity for 5-HT2C receptor ([3H]mesulergine radioligand binding). Conditions: human cloned 5-HT2C receptor; for IC50: read-out: 5-HT2C pIC50 (converted). In outline: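 Competition radioligand binding: varying test-compound concentrations incubated with receptor preparation and radioligand to binding equilibrium. Bound radioactivity separated from free and counted; affinity inferred from concentration-dependent inhibition of radioligand binding.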

The target of assay [4] is T4, human cloned 5-HT2A receptor, expressed in L929 cells (Homo sapiens, UniProt P28223).
T4 construct: expressed in transfected cells; host or cells: L929 cells
T4 sequence (P28223 whole entry): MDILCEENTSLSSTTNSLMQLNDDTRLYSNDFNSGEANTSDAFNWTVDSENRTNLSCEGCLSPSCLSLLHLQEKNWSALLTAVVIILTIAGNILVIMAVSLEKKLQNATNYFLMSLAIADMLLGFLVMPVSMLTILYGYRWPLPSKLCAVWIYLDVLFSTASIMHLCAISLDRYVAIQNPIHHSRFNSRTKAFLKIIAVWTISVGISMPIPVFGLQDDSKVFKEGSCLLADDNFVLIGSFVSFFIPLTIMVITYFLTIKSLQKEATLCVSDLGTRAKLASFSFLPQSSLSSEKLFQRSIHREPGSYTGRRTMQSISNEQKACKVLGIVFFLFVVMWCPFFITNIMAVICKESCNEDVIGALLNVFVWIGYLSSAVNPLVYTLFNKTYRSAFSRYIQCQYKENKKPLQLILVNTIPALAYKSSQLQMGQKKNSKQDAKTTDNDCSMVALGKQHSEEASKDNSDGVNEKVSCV
Description: In vitro binding affinity for 5-HT2A receptor ([125I]R91150 radioligand binding). Conditions: human cloned 5-HT2A receptor in L929 cells, [125I]R91150; for IC50: read-out: 5-HT2A pIC50 (converted). How it is done: In Vitro Binding Affinity for 5-HT2A and 5-HT2C Receptors
The interaction of the compounds of Formula (I) with 5-HT2A and 5-HT2C receptors was assessed in in vitro radioligand binding experiments. […] During the incubation, the radioligands bind to the receptor. When equilibrium of binding is reached, the receptor bound radioactivity is separated from the non-bound radioactivity, and the receptor bound activity is counted. The interaction of the test compounds with the receptors is assessed in competition binding experiments. Various concentrations of the test compound are added to the incubation mixture containing the tissue preparation and the radioligand. Binding of the radioligand will be inhibited by the test compound in proportion to its binding affinity and its concentration. The affinities of the compounds for the 5-HT2 receptors were measured by means of radioligand binding studies conducted with: (a) human cloned 5-HT2A receptor, expressed in L929 cells using [^125I]R91150 as radioligand and (b) human cloned 5-HT2C receptor, expressed in CHO cells using [^3H]mesulergine as radioligand.

T1 sequence (Q63380 1-617): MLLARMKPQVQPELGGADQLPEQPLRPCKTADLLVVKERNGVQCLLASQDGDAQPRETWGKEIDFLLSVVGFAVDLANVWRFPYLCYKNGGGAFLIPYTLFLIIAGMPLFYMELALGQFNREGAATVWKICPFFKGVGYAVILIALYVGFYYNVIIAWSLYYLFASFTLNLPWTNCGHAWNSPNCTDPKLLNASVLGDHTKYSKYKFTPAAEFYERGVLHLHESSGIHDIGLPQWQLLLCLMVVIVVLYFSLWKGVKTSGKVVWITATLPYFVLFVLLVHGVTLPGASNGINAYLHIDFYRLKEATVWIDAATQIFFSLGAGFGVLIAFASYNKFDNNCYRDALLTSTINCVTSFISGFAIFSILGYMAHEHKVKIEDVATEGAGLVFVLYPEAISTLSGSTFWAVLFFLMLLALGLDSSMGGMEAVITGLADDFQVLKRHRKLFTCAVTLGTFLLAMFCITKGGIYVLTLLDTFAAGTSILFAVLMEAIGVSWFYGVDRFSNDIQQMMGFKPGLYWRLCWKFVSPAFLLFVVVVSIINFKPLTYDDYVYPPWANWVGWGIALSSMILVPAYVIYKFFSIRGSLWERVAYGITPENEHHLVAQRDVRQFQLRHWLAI
T2 sequence (P14416 whole entry): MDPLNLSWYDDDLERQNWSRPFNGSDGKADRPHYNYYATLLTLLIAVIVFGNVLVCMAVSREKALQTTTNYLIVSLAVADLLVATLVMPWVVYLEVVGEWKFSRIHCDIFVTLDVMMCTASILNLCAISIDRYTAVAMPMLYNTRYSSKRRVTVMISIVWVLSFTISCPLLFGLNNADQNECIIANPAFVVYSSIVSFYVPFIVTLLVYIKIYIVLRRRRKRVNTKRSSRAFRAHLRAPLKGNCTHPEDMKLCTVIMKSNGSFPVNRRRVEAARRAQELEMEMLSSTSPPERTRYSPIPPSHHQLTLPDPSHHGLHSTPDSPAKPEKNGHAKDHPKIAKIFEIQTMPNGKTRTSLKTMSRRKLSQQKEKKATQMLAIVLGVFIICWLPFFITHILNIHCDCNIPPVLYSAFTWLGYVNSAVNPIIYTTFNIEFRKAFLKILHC

For `CC(=O)OCCN1[C@H](C)CN(C[C@H]2C[C@@H]3c4ccccc4Cc4ccc(F)cc4[C@@H]3O2)C[C@@H]1C.O=C(O)C(=O)O` [Compound 281], the “NET pIC50” value in assay [1] is under 5. In assay [2], the “D2L pIC50” value is listed as 7.74. For the same molecule, the “5-HT2C pIC50” value in assay [3] came to 7.87. The “5-HT2A pIC50” value in assay [4] was determined as 8.39.

As to `O=C(C1CCCO1)N1CCN(CC2CC3c4ccccc4Cc4ccc(F)cc4C3O2)CC1` (mixture of isomers) [Compound 80], the IC50 in assay [1] is 3.72 µM; in assay [2], 0.0447 µM; in assay [3], 0.0166 µM; in assay [4], 0.00107 µM.

Turning to `O=C(c1cccs1)N1CCN(CC2CC3c4ccccc4Cc4ccc(F)cc4C3O2)CC1` (stereo not drawn) [Compound 81], the IC50 in assay [1] is over 10 µM; in assay [2], 0.0355 µM; in assay [3], 0.00501 µM; in assay [4] it was 0.000724 µM.

On to `O=C(Nc1ccc(F)cc1)OCC1CCN(CC2CC3c4ccccc4Cc4ccc(F)cc4C3O2)C1` (stereo not drawn) [Compound 23], for which the IC50 in assay [1] is 3.8 µM; in assay [2] it was 0.00562 µM; in assay [3], 0.0038 µM; in assay [4], 0.00295 µM.

As for `O=C(NC1CC1)C1CCN(CC2CC3c4ccccc4Cc4ccc(F)cc4C3O2)CC1` (stereo not drawn) [Compound 187], the IC50 in assay [1] is over 10 µM; in assay [2], 0.0182 µM; in assay [3] it was 0.00115 µM; in assay [4], 0.000427 µM.

For `Fc1ccc2c(c1)C1OC(CN3CCCC(C4=NCCN4)C3)CC1c1ccccc1C2` (stereo not drawn) [Compound 171], the IC50 was 1.41 µM in assay [1], 0.282 µM in assay [2], 0.0182 µM in assay [3] and 0.0282 µM in assay [4].

For the molecule `Fc1ccc2c(c1)C1OC(CN3CCN(Cc4cc5ccccc5o4)CC3)CC1c1ccccc1C2` (stereo not drawn) [Compound 64], the IC50 in assay [1] was 2.69 µM; in assay [2], 0.0155 µM; in assay [3], 0.0288 µM; in assay [4], 0.0263 µM.

With `O=C(NCCC(c1ccccc1)c1ccccc1)C1CCN(CC2CC3c4ccccc4Cc4ccc(F)cc4C3O2)CC1` (stereo not drawn) [Compound 198], the IC50 in assay [1] is 7.59 µM; in assay [2] it was 0.0251 µM; in assay [3] it was 0.0162 µM; in assay [4], 0.00813 µM.

Take `CCOC(=O)CC1CN(C[C@H]2C[C@@H]3c4ccccc4Cc4ccc(F)cc4[C@@H]3O2)CCO1` (stereo partly drawn) [Compound 135]: the IC50 in assay [1] is 2.45 µM; in assay [2], 0.0324 µM; in assay [3], 0.0166 µM; in assay [4], 0.0112 µM.

Turning to `O=C(OC1CCN(CC2CC3c4ccccc4Cc4ccc(F)cc4C3O2)C1)c1ccc(F)cc1` (mixture of isomers) [Compound 16], the IC50 is 2 µM in assay [1], 0.00513 µM in assay [2], 0.00282 µM in assay [3] and 0.00562 µM in assay [4].

Turning to `Fc1ccc(OC2CCN(CC3CC4c5ccccc5Cc5ccc(F)cc5C4O3)C2)cc1` (mixture of isomers) [Compound 36], the IC50 in assay [1] was 4.07 µM; in assay [2], 0.0219 µM; in assay [3] it was 0.00468 µM; in assay [4], 0.0123 µM.

As to `Fc1ccc2c(c1)C1OC(CN3CCC(Oc4ccccc4F)C3)CC1c1ccccc1C2` (mixture of isomers) [Compound 34], the IC50 in assay [1] was 6.17 µM; in assay [2], 0.01 µM; in assay [3], 0.000427 µM; in assay [4], 0.00724 µM.

`N#CCCC1CCN(CC2CC3c4ccccc4Cc4ccc(F)cc4C3O2)CC1` (stereo not drawn) [Compound 170]: the IC50 in assay [1] is 4.27 µM; in assay [2] it was 0.00151 µM; in assay [3], 0.00263 µM; in assay [4] it was 0.00182 µM.

Take `CN1c2ccccc2[C@H]2C[C@@H](CN3CCC(O)C3)O[C@@H]2c2ccccc21` (relative stereo) [Compound 264]: the IC50 was 4.17 µM in assay [1], 2.24 µM in assay [2], 0.0191 µM in assay [3] and 0.166 µM in assay [4].

As to `O=C(NC1CCCCC1)OCC1CCN(CC2CC3c4ccccc4Cc4ccc(F)cc4C3O2)C1` (mixture of isomers) [Compound 21], the IC50 in assay [1] was 1.45 µM; in assay [2], 0.00724 µM; in assay [3], 0.00288 µM; in assay [4], 0.00191 µM.

Turning to `CCOC(=O)CNC(=O)NC1CCN(CC2CC3c4ccccc4Cc4ccc(F)cc4C3O2)CC1` (stereo not drawn) [Compound 242], the IC50 was 2.88 µM in assay [1], 0.00398 µM in assay [2], 0.00407 µM in assay [3] and 0.0012 µM in assay [4].

Turning to `O=C(O)CC1CN(C[C@H]2C[C@@H]3c4ccccc4Cc4ccc(F)cc4[C@@H]3O2)CCO1` (stereo partly drawn) [Compound 134], the IC50 is 0.0427 µM in assay [1], 0.0417 µM in assay [2], 0.00138 µM in assay [3] and under 0.01 µM in assay [4].

Regarding `O=C(O)C1CCN(C[C@H]2C[C@@H]3c4ccccc4Cc4ccc(F)cc4[C@@H]3O2)C1` (stereo partly drawn) [Compound 10], the IC50 in assay [1] was over 10 µM; in assay [2], 0.437 µM; in assay [3] it was 0.0135 µM; in assay [4] it was 0.0174 µM.

In the case of `COC(=O)c1ccc(CN2CCN(CC3CC4c5ccccc5Cc5ccc(F)cc5C4O3)CC2)cc1` (stereo not drawn) [Compound 72], the IC50 in assay [1] was 1.17 µM; in assay [2], 0.0269 µM; in assay [3], 0.0603 µM; in assay [4] it was 0.0309 µM.

For the molecule `Fc1ccc2c(c1)[C@@H]1O[C@@H](CN3CCC4(CC3)OCCO4)C[C@@H]1c1ccccc1C2` [Compound 278], the IC50 in assay [1] was over 10 µM; in assay [2], 0.00229 µM; in assay [3], 0.00977 µM; in assay [4], 0.00162 µM.

Consider `O=C(C1CCN(CC2CC3c4ccccc4Cc4ccc(F)cc4C3O2)CC1)N1CCC1` (stereo not drawn) [Compound 200], for which the IC50 was over 10 µM in assay [1], 0.0155 µM in assay [2], 0.00813 µM in assay [3] and under 0.01 µM in assay [4].

Take `CCOC(=O)CNC(=O)N1CCN(CC2CC3c4ccccc4Cc4ccc(F)cc4C3O2)CC1` (stereo not drawn) [Compound 92]: the IC50 was over 10 µM in assay [1], 0.0437 µM in assay [2], 0.0155 µM in assay [3] and 0.00257 µM in assay [4].

As to `O=C(O)C(=O)O.OCCN1CCCN(C[C@H]2C[C@@H]3c4ccccc4Cc4ccc(F)cc4[C@@H]3O2)CC1` [Compound 269], in assay [1], the “NET pIC50” value is reported as 5.15. The “D2L pIC50” value in assay [2] is 7.83. In assay [3], the “5-HT2C pIC50” value is listed as 8.14. Besides, the “5-HT2A pIC50” value in assay [4] came to 8.25.

As to `Fc1ccc2c(c1)C1OC(CN3CCN(C(=S)NC4CCCCC4)CC3)CC1c1ccccc1C2` (stereo not drawn) [Compound 114], the IC50 in assay [1] was 1.1 µM; in assay [2], 0.0457 µM; in assay [3], 0.0209 µM; in assay [4] it was 0.00617 µM.

Take `CCOC(=O)C1CCCCN1CC1CC2c3ccccc3Cc3ccc(F)cc3C2O1` (mixture of isomers) [Compound 158]: the IC50 in assay [1] is over 10 µM; in assay [2] it was 0.355 µM; in assay [3] it was 0.0331 µM; in assay [4], 0.0234 µM.

For the molecule `N#Cc1ccc(C(=O)NC2CCN(CC3CC4c5ccccc5Cc5ccc(F)cc5C4O3)CC2)cc1` (stereo not drawn) [Compound 236], the IC50 is over 10 µM in assay [1], 0.00676 µM in assay [2], 0.00955 µM in assay [3] and 0.00151 µM in assay [4].

For `OCC1CCCN(C[C@H]2C[C@@H]3c4ccccc4Cc4ccc(F)cc4[C@@H]3O2)C1` (stereo partly drawn) [Compound 147, [2R-(2α, 3aα, 12bβ)]-(3′RS)-[1-(11-fluoro-3,3a,8,12b-tetrahydro-2H-1-oxa-dibenzo[e,h]azulen-2-ylmethyl)-piperidin-3-yl]-methanol.oxalate (1:1)], the IC50 is over 10 µM in assay [1], 0.00479 µM in assay [2], 0.00126 µM in assay [3] and 0.0011 µM in assay [4].
